Reference: PubChem BioAssay (NCI)
Where “and” joins values, the source holds several entries; their conditions need not be identical. Equal entries are not always repeated.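 Interpolation was linear, between the two tested concentrations surrounding the appropriate level; five concentrations were tested over 48 hours in 96-well plates. GI50 marks 50% less growth. TGI: total growth inhibition.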

Tested on: HCT-15 colon
Assay: growth of human tumour cells (NCI), 48 h

Row | SMILES | GI50 [µM] | TGI [µM]
1 | O=C1CSC(c2ccc(Cl)cc2Cl)N1c1ccc(F)cc1 (configuration not stated) | 17.2 | 31
2 | COc1cccc(C#Cc2ccccc2C#CCCCCO)c1 | 3.62 | 17.7
3 | CC1=C[C@H]2c3c(c(O)c(O)c4oc(-c5ccccc5)cc(=O)c34)[C@H](c3cc(O)c(O)c4oc(-c5ccccc5)cc(=O)c34)[C@H]2C(C)(C)C1 | 1.82 | 10.4
4 | COc1ccc(/C=C/C(=O)C(CC2CCC2)C(=O)/C=C/c2ccc(OC)c(OC)c2)cc1OC | 1.28 | 3.9
5 | Nc1nc(F)nc2c1ncn2C1OC(CO)C(O)C1O (configuration not stated) | 56.7 | > 100
6 | CCn1c(-c2ccc(OC(C)=O)cc2)c(C)c2cc(OC(C)=O)ccc21 | – | > 100
7 | O=c1cccc(C#CC#CC2=CCCCC2)o1 | 2.76 | 10.9
8 | Br[C](Br)(Br)[Hg][c]1ccccc1 | 9.39 | 24
9 | COc1ccc(CC2NCCc3cc(OC)c(OC)cc32)cc1Br (configuration not stated) | – | > 100
10 | CCOc1cc(C(C)(C)C)ccc1C1=N[C@@](C)(c2ccc(Cl)cc2)[C@@](C)(c2ccc(Cl)cc2)N1C(=O)N1CCN(CCCS(C)(=O)=O)CC1 | 2.3 | 6.01

Tested on: SN12C renal
Assay: growth of human tumour cells (NCI), 48 h

Row | SMILES | GI50 [µM] | TGI
11 | O=C1CSC(c2ccc(Cl)cc2Cl)N1c1ccc(F)cc1 (configuration not stated) | 16.7 | 30.6 µM
12 | COc1cccc(C#Cc2ccccc2C#CCCCCO)c1 | 11.6 | 27 µM
13 | CC1=C[C@H]2c3c(c(O)c(O)c4oc(-c5ccccc5)cc(=O)c34)[C@H](c3cc(O)c(O)c4oc(-c5ccccc5)cc(=O)c34)[C@H]2C(C)(C)C1 | 1.09 | 7.31 µM
14 | COc1ccc(/C=C/C(=O)C(CC2CCC2)C(=O)/C=C/c2ccc(OC)c(OC)c2)cc1OC | 1.93 | 4.55 µM
15 | Nc1nc(F)nc2c1ncn2C1OC(CO)C(O)C1O (configuration not stated) | 5.55 | > 72.2 µM and 45.1 µM
16 | CCn1c(-c2ccc(OC(C)=O)cc2)c(C)c2cc(OC(C)=O)ccc21 | – | 79 µM
17 | O=c1cccc(C#CC#CC2=CCCCC2)o1 | 0.516 | 1.48 µM
18 | Br[C](Br)(Br)[Hg][c]1ccccc1 | 16.2 | 29.7 µM
19 | COc1ccc(CC2NCCc3cc(OC)c(OC)cc32)cc1Br (configuration not stated) | – | > 100 µM
20 | CCOc1cc(C(C)(C)C)ccc1C1=N[C@@](C)(c2ccc(Cl)cc2)[C@@](C)(c2ccc(Cl)cc2)N1C(=O)N1CCN(CCCS(C)(=O)=O)CC1 | 3.84 | 14.5 µM

Tested on: SF-539 CNS
Assay: growth of human tumour cells (NCI), 48 h

Row | SMILES | GI50 [µM] | TGI [µM]
21 | O=C1CSC(c2ccc(Cl)cc2Cl)N1c1ccc(F)cc1 (configuration not stated) | 19.2 | 33.4
22 | COc1cccc(C#Cc2ccccc2C#CCCCCO)c1 | 11.5 | 24.6
23 | CC1=C[C@H]2c3c(c(O)c(O)c4oc(-c5ccccc5)cc(=O)c34)[C@H](c3cc(O)c(O)c4oc(-c5ccccc5)cc(=O)c34)[C@H]2C(C)(C)C1 | 0.364 | 7.52
24 | COc1ccc(/C=C/C(=O)C(CC2CCC2)C(=O)/C=C/c2ccc(OC)c(OC)c2)cc1OC | 1.71 | 3.57
25 | Nc1nc(F)nc2c1ncn2C1OC(CO)C(O)C1O (configuration not stated) | – | > 100
26 | CCn1c(-c2ccc(OC(C)=O)cc2)c(C)c2cc(OC(C)=O)ccc21 | – | 43.5
27 | O=c1cccc(C#CC#CC2=CCCCC2)o1 | 0.235 | 3.04
28 | Br[C](Br)(Br)[Hg][c]1ccccc1 | 18 | 33.7
29 | COc1ccc(CC2NCCc3cc(OC)c(OC)cc32)cc1Br (configuration not stated) | – | > 100
30 | CCOc1cc(C(C)(C)C)ccc1C1=N[C@@](C)(c2ccc(Cl)cc2)[C@@](C)(c2ccc(Cl)cc2)N1C(=O)N1CCN(CCCS(C)(=O)=O)CC1 | 5.12 | 16.9

Tested on: EKVX NSCLC
Assay: growth of human tumour cells (NCI), 48 h

Row | SMILES | GI50 [µM] | TGI [µM]
31 | O=C1CSC(c2ccc(Cl)cc2Cl)N1c1ccc(F)cc1 (configuration not stated) | 17.6 | 34.8
32 | COc1cccc(C#Cc2ccccc2C#CCCCCO)c1 | 8.74 | 24.3
33 | CC1=C[C@H]2c3c(c(O)c(O)c4oc(-c5ccccc5)cc(=O)c34)[C@H](c3cc(O)c(O)c4oc(-c5ccccc5)cc(=O)c34)[C@H]2C(C)(C)C1 | 1.14 | 11.4
34 | COc1ccc(/C=C/C(=O)C(CC2CCC2)C(=O)/C=C/c2ccc(OC)c(OC)c2)cc1OC | 2.73 | 9.9
35 | Nc1nc(F)nc2c1ncn2C1OC(CO)C(O)C1O (configuration not stated) | – | > 100
36 | CCn1c(-c2ccc(OC(C)=O)cc2)c(C)c2cc(OC(C)=O)ccc21 | – | 71.4
37 | O=c1cccc(C#CC#CC2=CCCCC2)o1 | 10.2 | 25.8
38 | Br[C](Br)(Br)[Hg][c]1ccccc1 | 22 | 37.7
39 | COc1ccc(CC2NCCc3cc(OC)c(OC)cc32)cc1Br (configuration not stated) | – | > 100
40 | CCOc1cc(C(C)(C)C)ccc1C1=N[C@@](C)(c2ccc(Cl)cc2)[C@@](C)(c2ccc(Cl)cc2)N1C(=O)N1CCN(CCCS(C)(=O)=O)CC1 | 4.3 | 23.7

Tested on: OVCAR-4 ovarian
Assay: growth of human tumour cells (NCI), 48 h

Row | SMILES | GI50 [µM] | TGI [µM]
41 | O=C1CSC(c2ccc(Cl)cc2Cl)N1c1ccc(F)cc1 (configuration not stated) | 16.8 | 31.9
42 | COc1cccc(C#Cc2ccccc2C#CCCCCO)c1 | 20.4 | 44.2
43 | CC1=C[C@H]2c3c(c(O)c(O)c4oc(-c5ccccc5)cc(=O)c34)[C@H](c3cc(O)c(O)c4oc(-c5ccccc5)cc(=O)c34)[C@H]2C(C)(C)C1 | 1.56 | 9.55
44 | COc1ccc(/C=C/C(=O)C(CC2CCC2)C(=O)/C=C/c2ccc(OC)c(OC)c2)cc1OC | 2.34 | > 100
45 | Nc1nc(F)nc2c1ncn2C1OC(CO)C(O)C1O (configuration not stated) | – | > 100
46 | CCn1c(-c2ccc(OC(C)=O)cc2)c(C)c2cc(OC(C)=O)ccc21 | – | 59.8
47 | O=c1cccc(C#CC#CC2=CCCCC2)o1 | 28 | > 49.3
48 | Br[C](Br)(Br)[Hg][c]1ccccc1 | 19.9 | 41.9
49 | COc1ccc(CC2NCCc3cc(OC)c(OC)cc32)cc1Br (configuration not stated) | – | > 100
50 | CCOc1cc(C(C)(C)C)ccc1C1=N[C@@](C)(c2ccc(Cl)cc2)[C@@](C)(c2ccc(Cl)cc2)N1C(=O)N1CCN(CCCS(C)(=O)=O)CC1 | 7.33 | 22.5
